Here are results for 1 molecule from ChEMBL document CHEMBL5150060 (J Med Chem, 2022).

Structures are written as SMILES. Activity calls are given as the source filed them. No cut-off for these calls is given here.

One data set has as its target Histone deacetylase 4 (Homo sapiens, UniProt P56524). As to the kind of experiment: Inhibition of HDAC4 (unknown origin).
In data set [1] the target is T1, Histone deacetylase 8 (Homo sapiens) (UniProt Q9BY41).
T1 sequence (whole entry): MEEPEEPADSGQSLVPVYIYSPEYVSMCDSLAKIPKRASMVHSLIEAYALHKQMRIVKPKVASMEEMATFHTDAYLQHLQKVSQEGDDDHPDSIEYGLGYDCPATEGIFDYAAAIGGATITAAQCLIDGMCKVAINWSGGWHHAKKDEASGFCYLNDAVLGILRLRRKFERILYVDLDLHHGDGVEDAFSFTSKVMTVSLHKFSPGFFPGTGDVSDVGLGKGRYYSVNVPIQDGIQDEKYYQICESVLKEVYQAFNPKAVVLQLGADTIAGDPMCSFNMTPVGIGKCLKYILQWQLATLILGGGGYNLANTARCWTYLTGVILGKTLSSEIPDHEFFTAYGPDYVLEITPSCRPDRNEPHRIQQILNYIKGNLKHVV
Nature of the data set: Inhibition of HDAC8 in human Jurkat T cells assessed as upregulation of TBX21 expression after 6 hrs by RT-qPCR analysis. In kind it is cell-based. To be noted: dose 0.1-10 µM, DDE = dose-dependent effect.

The subject of a further data set is Mus musculus. As to the kind of experiment: Immuno-modulatory activity in C57BL/6 mouse assessed as increase in proportion of CD3+ cells in spleen at 10 mg/kg, ip administered 5 days per week for 2 weeks by flow cytometry analysis. In kind it is functional, organism-based.
The nature of data set [2]: Stability of compound in DMEM/DMSO/acetonitrile at pH 7.4 measured after 24 hrs by HPLC analysis. In kind it is physicochemical. To be noted: read-out: Stability.
Data set [3] is described as follows: Stability of compound in DMEM/DMSO/acetonitrile at pH 7.4 measured after 72 hrs by HPLC analysis. In kind it is physicochemical. To be noted: read-out: Stability.
Data set [4] can be described thus: Toxicity in C57BL/6 mouse assessed as change in stomach weight at 5 to 10 mg/kg, ip administered 5 days per week for 2 weeks by H and E staining based assay. To be noted: in vivo, 336 h, dose 5-10 mg/kg. In kind it is organism-based.
The target in data set [5] is T1, Histone deacetylase 8 (Homo sapiens). As to the kind of experiment: Inhibition of HDAC8 in human Jurkat T cells assessed as upregulation of […] expression at 10 uM after 6 to 12 hrs by RT-qPCR analysis. In kind it is cell-based. To be noted: time 6-12 hrs.
For data set [6] the target is unchanged. As to the kind of experiment: Inhibition of HDAC8 in human Jurkat T cells assessed as upregulation of IL5 expression at 10 uM after 6 to 12 hrs by RT-qPCR analysis. In kind it is cell-based. To be noted: time 6-12 hrs.
Another data set concerns the target T2, Histone deacetylase 11 (Homo sapiens, UniProt Q96DB2).
T2 sequence (Q96DB2 whole entry): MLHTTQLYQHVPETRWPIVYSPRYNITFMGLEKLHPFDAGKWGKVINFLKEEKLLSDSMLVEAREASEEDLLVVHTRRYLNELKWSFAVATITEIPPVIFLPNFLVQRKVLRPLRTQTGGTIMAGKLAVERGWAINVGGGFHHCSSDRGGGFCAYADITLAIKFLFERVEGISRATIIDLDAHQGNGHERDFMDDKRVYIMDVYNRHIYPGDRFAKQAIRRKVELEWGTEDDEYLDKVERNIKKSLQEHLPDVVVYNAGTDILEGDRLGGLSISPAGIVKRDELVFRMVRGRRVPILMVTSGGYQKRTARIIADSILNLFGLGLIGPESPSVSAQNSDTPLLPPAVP
As to the kind of experiment: Inhibition of recombinant human HDAC11 preincubated for 10 mins followed by substrate addition by fluorescence based analysis.

Data set [7] deals with T1, Histone deacetylase 8 (Homo sapiens). As to the kind of experiment: Inhibition of HDAC8 in human Jurkat T cells assessed as upregulation of BCL6 expression after 6 hrs by RT-qPCR analysis. In kind it is cell-based. To be noted: dose 0.1-10 µM, DDE = dose-dependent effect.
Data set [8] has the same target. Nature of the data set: Inhibition of HDAC8 in human Jurkat T cells assessed as upregulation of IL-7R expression after 6 hrs by RT-qPCR analysis. In kind it is cell-based. To be noted: dose 0.1-10 µM, DDE = dose-dependent effect.
The target is the same in data set [9]. Nature of the data set: Inhibition of HDAC8 in human Jurkat T cells assessed as upregulation of EOMES expression at 10 uM after 6 to 12 hrs by RT-qPCR analysis. To be noted: time 6-12 hrs. In kind it is cell-based.

Sequence of Histone deacetylase 4 (P56524 whole entry): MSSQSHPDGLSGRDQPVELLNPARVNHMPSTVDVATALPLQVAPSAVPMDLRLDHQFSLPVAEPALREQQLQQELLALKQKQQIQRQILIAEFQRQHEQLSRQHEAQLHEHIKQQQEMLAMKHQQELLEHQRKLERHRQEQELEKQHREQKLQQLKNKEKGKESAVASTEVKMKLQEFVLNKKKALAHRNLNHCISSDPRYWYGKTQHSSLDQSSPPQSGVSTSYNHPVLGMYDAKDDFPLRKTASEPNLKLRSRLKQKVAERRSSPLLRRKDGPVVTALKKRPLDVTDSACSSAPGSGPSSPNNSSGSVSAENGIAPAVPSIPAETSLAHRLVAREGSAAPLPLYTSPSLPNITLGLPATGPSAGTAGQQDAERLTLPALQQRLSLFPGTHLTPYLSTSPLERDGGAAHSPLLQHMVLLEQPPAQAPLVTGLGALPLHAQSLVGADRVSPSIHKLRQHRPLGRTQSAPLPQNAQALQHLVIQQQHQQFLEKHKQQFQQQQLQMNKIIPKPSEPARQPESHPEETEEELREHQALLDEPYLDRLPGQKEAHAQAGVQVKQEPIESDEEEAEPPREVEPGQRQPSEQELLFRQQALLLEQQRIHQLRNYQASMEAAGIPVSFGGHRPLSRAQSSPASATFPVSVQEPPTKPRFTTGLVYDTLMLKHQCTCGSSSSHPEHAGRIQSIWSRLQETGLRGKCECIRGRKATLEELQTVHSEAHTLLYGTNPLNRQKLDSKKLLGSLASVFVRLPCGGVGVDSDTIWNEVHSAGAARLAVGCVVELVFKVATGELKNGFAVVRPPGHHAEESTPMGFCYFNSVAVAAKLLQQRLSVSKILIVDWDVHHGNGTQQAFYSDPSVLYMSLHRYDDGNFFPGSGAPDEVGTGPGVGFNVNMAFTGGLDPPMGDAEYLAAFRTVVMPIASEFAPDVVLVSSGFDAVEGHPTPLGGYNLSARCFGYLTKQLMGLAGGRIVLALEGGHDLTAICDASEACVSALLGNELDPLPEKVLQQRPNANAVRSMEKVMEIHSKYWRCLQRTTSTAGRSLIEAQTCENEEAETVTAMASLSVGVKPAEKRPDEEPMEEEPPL

For `CCCCCCNNC(=O)c1ccc(-c2ccc(CNC(C)=O)cc2)cc1`, the figures for the IC50 against Histone deacetylase 4 and on Histone deacetylase 11 were more than 20000 nM and 180 nM, respectively. For the same molecule, the inhibition result in [1], in [7] and in data set [8] was “Dde” in each case. In addition, the result with Mus musculus was Active. Also, the remaining at 24 h in [2] amounted to 105%. For the same molecule, the remaining at 72 h in data set [3] was 103%. The Activity entry in [4] is “Non-Toxic”. Besides, the inhibition result in data set [5], in data set [6] and in data set [9] was “Active” each time.
